Tests used:
[1] = Antiinflammatory activity in LPS-stimulated mouse BV2 cells assessed as inhibition of NO production at 40 uM after 24 hrs by Griess method relative to control; assay type: functional; conditions: BV-2, 24 h
[2] = Cytotoxicity against mouse BV2 cells assessed as cell viability at 40 uM after 24 hrs by MTT assay relative to control; assay type: cell-based, BV-2; conditions: read-out: Activity
BV-2 = test: Antiinflammatory activity in LPS-stimulated mouse BV2 cells assessed as inhibition of NO production after 24 hrs by Griess method; assay type: functional, cell-based

Compound	inhibition at 40 µM [1] [%]	viability at 24 h, 40 µM [2] [%]	inhibition (BV-2)
C[C@H]([C@H](O)CO)[C@H]1CC[C@H]2[C@@H]3[C@H](O)C(=O)[C@H]4C[C@H](O)CC[C@]4(C)[C@H]3CC[C@]12C	47.1	95.7	–
COC(=O)CC[C@@H](C)[C@H]1CC[C@H]2[C@@H]3[C@H](F)C(=O)[C@H]4C[C@@H]5O[C@@H]5C[C@]4(C)[C@H]3CC[C@]12C	32.6	97.2	–
COC(=O)CC[C@@H](C)[C@H]1CC[C@H]2[C@@H]3CC(=O)[C@H]4C[C@H](O)[C@@H](Br)C[C@]4(C)[C@H]3CC[C@]12C	42.7	91.4	–
COC(=O)CC[C@@H](C)[C@H]1CC[C@H]2[C@@H]3CC(=O)[C@H]4C[C@@H](O)CC[C@]4(C)[C@H]3CC[C@]12C	18.1	27.8	–
COC(=O)CC[C@@H](C)[C@H]1CC[C@H]2[C@@H]3CC(=O)[C@H]4C[C@H](O)[C@H](O)C[C@]4(C)[C@H]3CC[C@]12C	74.1	81.1	–
C[C@H]([C@H](O)CO)[C@H]1CC[C@H]2[C@@H]3[C@H](F)C(=O)[C@H]4C[C@@H](F)CC[C@]4(C)[C@H]3CC[C@]12C	35.9	81.7	–
COC(=O)CC[C@@H](C)[C@H]1CC[C@H]2[C@@H]3[C@H](O)C(=O)[C@H]4C[C@H](O)[C@@H](F)C[C@]4(C)[C@H]3CC[C@]12C	75.1	80.5	–
C=C[C@@H](C)[C@H]1CC[C@H]2[C@@H]3[C@H](O)C(=O)[C@H]4C[C@H](O)CC[C@]4(C)[C@H]3CC[C@]12C	69.6	76.6	–
COC(=O)CC[C@@H](C)[C@H]1CC[C@H]2[C@@H]3CC(=O)[C@H]4C[C@H](O)CC[C@]4(C)[C@H]3CC[C@]12C	39.4	87.7	–
C=C[C@@H](C)[C@H]1CC[C@H]2[C@@H]3[C@H](F)C(=O)[C@H]4C[C@H](O)[C@@H](F)C[C@]4(C)[C@H]3CC[C@]12C	63.8	86.8	–
C[C@H]([C@H](O)CO)[C@H]1CC[C@H]2[C@@H]3[C@H](O)C(=O)[C@H]4C[C@@H](F)CC[C@]4(C)[C@H]3CC[C@]12C	91.9	78.6	–
COC(=O)CC[C@@H](C)[C@H]1CC[C@H]2[C@@H]3CC(=O)[C@H]4C[C@@H](Br)CC[C@]4(C)[C@H]3CC[C@]12C	41.5	81.5	–
COC(=O)CC[C@@H](C)[C@H]1CC[C@H]2[C@@H]3CC(=O)[C@H]4C[C@@H]5O[C@@H]5C[C@]4(C)[C@H]3CC[C@]12C	48.6	99.5	–
C=C[C@@H](C)[C@H]1CC[C@H]2[C@@H]3CC(=O)[C@H]4C[C@H](O)CC[C@]4(C)[C@H]3CC[C@]12C	24.5	96.4	–
COC(=O)CC[C@@H](C)[C@H]1CC[C@H]2[C@@H]3[C@H](F)C(=O)[C@H]4C[C@H](O)[C@@H](F)C[C@]4(C)[C@H]3CC[C@]12C	70	96.2	Dose-dependent effect
C=C[C@@H](C)[C@H]1CC[C@H]2[C@@H]3[C@H](O)C(=O)[C@H]4C[C@@H](F)CC[C@]4(C)[C@H]3CC[C@]12C	43.2	87	–
COC(=O)CC[C@@H](C)[C@H]1CC[C@H]2[C@@H]3CC(=O)[C@H]4C[C@H](O)[C@@H](O)C[C@]4(C)[C@H]3CC[C@]12C	44.9	79.5	–
COC(=O)CC[C@@H](C)[C@H]1CC[C@H]2[C@@H]3[C@H](F)C(=O)[C@H]4C[C@@H](F)CC[C@]4(C)[C@H]3CC[C@]12C	39.1	92.2	–

Compound	inhibition at 40 µM [1] [%]	viability at 24 h, 40 µM [2] [%]	inhibition (BV-2)
COC(=O)CC[C@@H](C)[C@H]1CC[C@H]2[C@@H]3[C@H](O)C(=O)[C@H]4C[C@@H](O)CC[C@]4(C)[C@H]3CC[C@]12C	71.1	96.3	Dose-dependent effect
COC(=O)CC[C@@H](C)[C@H]1CC[C@H]2[C@@H]3CC(=O)[C@H]4C[C@H](O)[C@@H](F)C[C@]4(C)[C@H]3CC[C@]12C	46.1	95.8	–
COC(=O)CC[C@@H](C)[C@H]1CC[C@H]2[C@@H]3[C@H](F)C(=O)[C@H]4C[C@H](O)[C@H](O)C[C@]4(C)[C@H]3CC[C@]12C	72.4	69.9	–
C[C@H]([C@H](O)CO)[C@H]1CC[C@H]2[C@@H]3CC(=O)[C@H]4C[C@H](O)CC[C@]4(C)[C@H]3CC[C@]12C	60.4	95.9	Dose-dependent effect
COC(=O)CC[C@@H](C)[C@H]1CC[C@H]2[C@@H]3[C@H](F)C(=O)[C@H]4C[C@H](O)CC[C@]4(C)[C@H]3CC[C@]12C	47.2	73.7	–
C[C@]12CC[C@H](O)CC1=CC[C@@H]1[C@@H]2CC[C@]2(C)C(=O)CC[C@@H]12 [PRASTERONE]	55.3	99.1	–
C=C[C@@H](C)[C@H]1CC[C@H]2[C@@H]3[C@H](O)C(=O)[C@H]4C[C@@H](O)CC[C@]4(C)[C@H]3CC[C@]12C	59.5	81.8	–
C=C[C@@H](C)[C@H]1CC[C@H]2[C@@H]3[C@H](O)C(=O)[C@H]4C[C@H](O)[C@@H](F)C[C@]4(C)[C@H]3CC[C@]12C	92.7	55.9	–
C[C@H]([C@H](O)CO)[C@H]1CC[C@H]2[C@@H]3[C@H](F)C(=O)[C@H]4C[C@H](O)CC[C@]4(C)[C@H]3CC[C@]12C	68.1	95.1	Dose-dependent effect
COC(=O)CC[C@@H](C)[C@H]1CC[C@H]2[C@@H]3CC(=O)[C@H]4C[C@@H](F)CC[C@]4(C)[C@H]3CC[C@]12C	43.5	84.1	–
C=C[C@@H](C)[C@H]1CC[C@H]2[C@@H]3[C@H](F)C(=O)[C@H]4C[C@H](O)CC[C@]4(C)[C@H]3CC[C@]12C	44.5	76.6	–
COC(=O)CC[C@@H](C)[C@H]1CC[C@H]2[C@@H]3CC(=O)[C@H]4CC(=O)CC[C@]4(C)[C@H]3CC[C@]12C	48.2	78	–
COC(=O)CC[C@@H](C)[C@H]1CC[C@H]2[C@@H]3[C@H](F)C(=O)[C@H]4C[C@@H](O)CC[C@]4(C)[C@H]3CC[C@]12C	43.9	23.1	–
COC(=O)CC[C@@H](C)[C@H]1CC[C@H]2[C@@H]3[C@H](O)C(=O)[C@H]4C[C@@H](F)CC[C@]4(C)[C@H]3CC[C@]12C	64.2	92.4	Dose-dependent effect
COC(=O)CC[C@@H](C)[C@H]1CC[C@H]2[C@@H]3CC(=O)[C@H]4C[C@@H](Cl)CC[C@]4(C)[C@H]3CC[C@]12C	35.9	79	–
C=C[C@@H](C)[C@H]1CC[C@H]2[C@@H]3CC(=O)[C@H]4C[C@H](O)[C@H](O)C[C@]4(C)[C@H]3CC[C@]12C	65.7	48.2	–
COC(=O)CC[C@@H](C)[C@H]1CC[C@H]2[C@@H]3[C@H](F)C(=O)[C@H]4C[C@H](O)[C@@H](O)C[C@]4(C)[C@H]3CC[C@]12C	68.1	50.8	–
C[C@H]([C@H](O)CO)[C@H]1CC[C@H]2[C@@H]3CC(=O)[C@H]4C[C@H](O)[C@H](O)C[C@]4(C)[C@H]3CC[C@]12C	22.6	94	–

Reference: ChEMBL document CHEMBL3112432, “Synthesis of 5α-cholestan-6-one derivatives and their inhibitory activities of NO production in activated microglia: discovery of a novel neuroinflammation inhibitor” (Bioorg Med Chem Lett, 2014)
